Test results: ChEMBL document CHEMBL5120890, “Untapped Pharmaceutical Potential of 4,5,4'-Trihydroxy-3,3'-dimethoxybibenzyl for Regulating Obesity: A Cell-Based Study with a Focus on Terminal Differentiation in Adipogenesis” (J Nat Prod, 2022)
The source made the active and inactive calls. The calls are words filed in the database; no cut-off is given here.

Key:
[1] = target: T1, 5'-AMP-activated protein kinase (Mus musculus) (UniProt Q5EG47+Q8BRK8+Q6PAM0+O54950+Q91WG5+Q9R078+Q8BGM7); assay: Activation of AMPK in mouse 3T3-L1 cells assessed as increase in AMPKbeta phosphorylation in early differentiation at 0.5 to 5 uM after 48 hrs by Western blot analysis; assay type: cell-based; settings: filed as activator, dose 0.5-5 µM
[2] = (§1) Cytotoxicity against mouse 3T3-L1 adipocytes assessed as reduction in cell viability after 48 hrs by MTT assay; assay type: toxicity, cell-based; settings: 3T3-L1 adipocytes
3T3-L1 [3] = assay: as §1; assay type: toxicity, cell-based; settings: 3t3-l1, 48 h, time 48 hrs
[4] = Cytotoxicity against human PCS-210-010 adipocytes assessed as reduction in cell viability after 48 hrs by MTT assay; assay type: toxicity, cell-based
[5] = Cytotoxicity against human PCS-210-010 pre-adipocytes assessed as reduction in cell viability at >=10 uM after 48 hrs by MTT assay; assay type: toxicity, cell-based; settings: pcs-210-010, 48 h
3T3-L1 [6] = assay: Cytotoxicity against mouse 3T3-L1 pre-adipocytes assessed as reduction in cell viability at >=25 uM after 48 hrs by MTT assay; assay type: toxicity, cell-based; settings: 3t3-l1, 48 h
[7] = Cytotoxicity against human PCS-210-010 pre-adipocytes assessed as reduction in cell viability at >=25 uM after 48 hrs by MTT assay; assay type: toxicity, cell-based; settings: pcs-210-010, 48 h
PCS-210-010 [8] = assay: Induction of apoptosis in human PCS-210-010 pre-adipocytes at 0.5 to 5 uM after 48 hrs by PI/Hoechst 33342 staining based fluorescence microscopic analysis; assay type: functional, cell-based; settings: dose 0.5-5 µM
PCS-210-010 [9] = assay: Inhibition of preadipocyte differentiation in human PCS-210-010 cells assessed as reduction in triglyceride accumulation in maturation at 0.5 to 5 uM incubated for 8 days by colorimetric assay; assay type: functional, cell-based; settings: dose 0.5-5 µM, time 8.0 day, DDE = dose-dependent effect
3T3-L1 [10] = assay: Inhibition of preadipocyte differentiation in mouse 3T3-L1 cells assessed as increase in glycerol release in early differentiation at 0.5 to 5 uM incubated for 8 days by colorimetric assay; assay type: functional, cell-based; settings: dose 0.5-5 µM, time 8.0 day, DDE = dose-dependent effect
3T3-L1 [11] = assay: Inhibition of preadipocyte differentiation in mouse 3T3-L1 cells assessed as increase in glycerol release in maturation at 0.5 to 5 uM incubated for 8 days by colorimetric assay; assay type: functional, cell-based; settings: dose 0.5-5 µM, time 8.0 day, DDE = dose-dependent effect
PCS-210-010 [12] = assay: Inhibition of preadipocyte differentiation in human PCS-210-010 cells assessed as increase in glycerol release in early differentiation at 0.5 to 5 uM incubated for 8 days by colorimetric assay; assay type: functional, cell-based; settings: dose 0.5-5 µM, time 8.0 day, DDE = dose-dependent effect
3T3-L1 [13] = assay: Down regulation of FAS protein expression in mouse 3T3-L1 cells in early differentiation at 0.5 to 5 uM after 8 days by western blot analysis; assay type: functional, cell-based; settings: dose 0.5-5 µM, time 8.0 day
3T3-L1 [14] = assay: Antiproliferative activity against mouse 3T3-L1 cells assessed as reduction in cell proliferation at 0.5 to 5 uM after 24 to 72 hrs by crystal violet staining based assay; assay type: functional; settings: dose 0.5-5 µM, time 24-72 hrs
3T3-L1 [15] = assay: Down regulation of CDK2 protein expression in mouse 3T3-L1 cells at 0.5 to 5 uM after 18 hrs by western blot analysis; assay type: functional, cell-based; settings: dose 0.5-5 µM
3T3-L1 [16] = assay: Down regulation of CDK4 protein expression in mouse 3T3-L1 cells at 0.5 to 5 uM after 18 hrs by western blot analysis; assay type: functional, cell-based; settings: dose 0.5-5 µM
3T3-L1 [17] = assay: Upregulation of p21 protein expression in mouse 3T3-L1 cells at 0.5 to 5 uM after 18 hrs by western blot analysis; assay type: functional, cell-based; settings: dose 0.5-5 µM
3T3-L1 [18] = assay: Upregulation of p18 protein expression in mouse 3T3-L1 cells at 0.5 to 5 uM after 18 hrs by western blot analysis; assay type: functional, cell-based; settings: dose 0.5-5 µM
3T3-L1 [19] = assay: Down regulation of SREBP1 protein expression in mouse 3T3-L1 cells at 0.5 to 5 uM after 48 hrs by western blot analysis; assay type: functional, cell-based; settings: dose 0.5-5 µM, DDE = dose-dependent effect
3T3-L1 [20] = assay: Down regulation of C/EBpalpha protein expression in mouse 3T3-L1 cells at 0.5 to 5 uM after 48 hrs by western blot analysis; assay type: functional, cell-based; settings: dose 0.5-5 µM, DDE = dose-dependent effect
3T3-L1 [21] = assay: Down regulation of PPARG mRNA expression in mouse 3T3-L1 cells at 0.5 to 5 uM after 48 hrs by RT-qPCR analysis; assay type: functional, cell-based; settings: dose 0.5-5 µM, DDE = dose-dependent effect
3T3-L1 [22] = assay: Down regulation of PLIN1 protein expression in mouse 3T3-L1 cells in early differentiation at 0.5 to 5 uM after 8 days by western blot analysis; assay type: functional, cell-based; settings: dose 0.5-5 µM, time 8.0 day
3T3-L1 [23] = assay: Down regulation of LPL protein expression in mouse 3T3-L1 cells in early differentiation at 0.5 to 5 uM after 8 days by western blot analysis; assay type: functional, cell-based; settings: dose 0.5-5 µM, time 8.0 day
3T3-L1 [24] = assay: Down regulation of adiponectin protein expression in mouse 3T3-L1 cells in early differentiation at 0.5 to 5 uM after 8 days by western blot analysis; assay type: functional, cell-based; settings: dose 0.5-5 µM, time 8.0 day
3T3-L1 [25] = assay: Down regulation of PL1N1 protein expression in mouse 3T3-L1 cells in maturation at 0.5 to 5 uM after 10 days by western blot analysis; assay type: functional, cell-based; settings: dose 0.5-5 µM, time 10.0 day
3T3-L1 [26] = assay: Down regulation of LPL protein expression in mouse 3T3-L1 cells in maturation at 0.5 to 5 uM after 10 days by western blot analysis; assay type: functional, cell-based; settings: dose 0.5-5 µM, time 10.0 day
3T3-L1 [27] = assay: Down regulation of FABP4 protein expression in mouse 3T3-L1 cells in maturation at 0.5 to 5 uM after 10 days by western blot analysis; assay type: functional, cell-based; settings: dose 0.5-5 µM, time 10.0 day
3T3-L1 [28] = assay: Down regulation of FAS mRNA expression in mouse 3T3-L1 cells in early differentiation at 0.5 to 5 uM after 8 days by RT-qPCR analysis; assay type: functional, cell-based; settings: dose 0.5-5 µM, time 8.0 day
3T3-L1 [29] = assay: Down regulation of PL1N1 mRNA expression in mouse 3T3-L1 cells in early differentiation at 0.5 to 5 uM after 8 days by RT-qPCR analysis; assay type: functional, cell-based; settings: dose 0.5-5 µM, time 8.0 day
3T3-L1 [30] = assay: Down regulation of adiponectin mRNA expression in mouse 3T3-L1 cells in early differentiation at 0.5 to 5 uM after 8 days by RT-qPCR analysis; assay type: functional, cell-based; settings: dose 0.5-5 µM, time 8.0 day
3T3-L1 [31] = assay: Down regulation of PL1N1 mRNA expression in mouse 3T3-L1 cells in maturation at 0.5 to 5 uM after 10 days by RT-qPCR analysis; assay type: functional, cell-based; settings: dose 0.5-5 µM, time 10.0 day
3T3-L1 [32] = assay: Down regulation of LPL mRNA expression in mouse 3T3-L1 cells in maturation at 0.5 to 5 uM after 10 days by RT-qPCR analysis; assay type: functional, cell-based; settings: dose 0.5-5 µM, time 10.0 day
3T3-L1 [33] = assay: Down regulation of adiponectin mRNA expression in mouse 3T3-L1 cells in maturation at 0.5 to 5 uM after 10 days by RT-qPCR analysis; assay type: functional, cell-based; settings: dose 0.5-5 µM, time 10.0 day
3T3-L1 [34] = assay: Activation of AMPK-ACC signalling pathway in mouse 3T3-L1 cells assessed as increase in ACC phosphorylation in early differentiation at 0.5 to 5 uM after 48 hrs by Western blot analysis; assay type: cell-based; settings: filed as activator, dose 0.5-5 µM
[35] = target: T1, 5'-AMP-activated protein kinase (Mus musculus); assay: Activation of AMPK in mouse 3T3-L1 cells assessed as increase in AMPKalpha phosphorylation in maturation at 0.5 to 5 uM after 48 hrs by Western blot analysis; assay type: cell-based; settings: filed as activator, dose 0.5-5 µM
[36] = target: T1, 5'-AMP-activated protein kinase (Mus musculus); assay: Activation of AMPK in mouse 3T3-L1 cells assessed as increase in AMPKbeta phosphorylation in maturation at 0.5 to 5 uM after 48 hrs by Western blot analysis; assay type: cell-based; settings: filed as activator, dose 0.5-5 µM

SMILES: COc1cc(CCc2cc(O)c(O)c(OC)c2)ccc1O
- Activity [1]: Active
- IC50 at 48 h [2]: 72.4 µM
- Activity (3T3-L1 [3]): Toxic
- IC50 at 48 h ([4]; PCS-210-010 adipocytes): 71.9 µM
- Activity ([4]; pcs-210-010, 48 h, time 48 hrs): Toxic
- Activity [5]: Toxic
- Activity (3T3-L1 [6]): Toxic
- Activity [7]: Toxic
- Activity (PCS-210-010 [8]): Non-Toxic
- inhibition (PCS-210-010 [9]): Dde
- inhibition (3T3-L1 [10]): Dde
- inhibition (3T3-L1 [11]): Dde
- inhibition (PCS-210-010 [12]): Dde
- Activity (3T3-L1 [13]): Active
- Activity (3T3-L1 [14]): Active
- Activity (3T3-L1 [15]): Active
- Activity (3T3-L1 [16]): Active
- Activity (3T3-L1 [17]): Active
- Activity (3T3-L1 [18]): Active
- Activity (3T3-L1 [19]): Dde
- Activity (3T3-L1 [20]): Dde
- Activity (3T3-L1 [21]): Dde
- Activity (3T3-L1 [22]): Active
- Activity (3T3-L1 [23]): Active
- Activity (3T3-L1 [24]): Active
- Activity (3T3-L1 [25]): Active
- Activity (3T3-L1 [26]): Active
- Activity (3T3-L1 [27]): Active
- Activity (3T3-L1 [28]): Active
- Activity (3T3-L1 [29]): Active
- Activity (3T3-L1 [30]): Active
- Activity (3T3-L1 [31]): Active
- Activity (3T3-L1 [32]): Active
- Activity (3T3-L1 [33]): Active
- Activity (3T3-L1 [34]): Active
- Activity [35]: Active
- Activity [36]: Active
